Holding throughout (assay type): cell-based
The test system of assay [1] is M. furfur. Put plainly: Antifungal activity, log reduction by plate count. As to conditions: M. furfur ATCC 14521; contact time 24 hr; 10 mg sample in 1000 μL inoculum, 10^5 cells/ml; 32° C. The protocol:
The samples as given in Table-1 were subjected to their anti fungal efficacy on M. furfur as described hereinafter.
Plate was at 30° C. for 72 hrs. Approximately 72 hrs prior to testing, the plate culture was inoculated onto the surface of another sterile Modified Dixon agar plate and incubated at 30° C. for approximately 72 hrs. From second subculture, the optical density of culture is adjusted at 620 nm to give cell strength of 10^7 cfu/ml. The culture was further diluted by 100 times to achieve 10^5 cfu/ml in Pityrosporum broth.
10 mg of each sample was thoroughly mixed by vortex and weighed into a sterile 1.5 ml Eppendorf tube. 1000 μL of M. furfur inocula were added to the above tubes and a blank sterile 1.5 ml Eppendorf tube (no particles as control), respectively so that the load in each tube is 10^5 cells/ml.
All the samples were shaken at 120 RPM in a shaker incubator at 32° C. After 24 hours incubation, 10 μL of the samples were withdrawn from the respective 1.5 ml Eppendorf tubes and diluted with 990 μL of Pityrosporum broth. This represents a 10^2 dilution. Serial dilution was performed from the above 24 hours inocula and plated 100 μL of dilution onto modified Dixon plate. Plate dilution 10^2, 10^3, 10^4 and […]. All the plates were kept for incubation at 32° C. for 24-72 hrs. Plate count for all the plates were done.

Assay [2] concerns M. furfur ATCC 14521. Put plainly: Disc diffusion technique (agar cup method), zone of inhibition. As to conditions: test conc. 0.5 %, Modified Dixon agar, 72 hrs at 32 C, disc diameter 10 mm.
Description: The plates are swabbed with 100 μl of test inoculum containing approximately 10^6 cells/ml. The swabbed plates are allowed to dry for 5 mins so to absorb excess of remaining culture fluid. The discs impregnated with different test solution were placed on the inoculated agar surface. Each plate was labelled with different test solution and their respective concentration used. The agar plates are incubated for 72 hrs at 32° C. Zones of inhibition are measured using calibrated mm ruler.
Media used: Modified Dixon agar
Incubation conditions: 72 hrs at 32 C
Diameter of disc used: 10 mm (Himedia make)
Assay [3] deals with Staphylococcus aureus. Briefly: Antibacterial efficacy, log reduction by plate count. The settings on record: contact time 60 seconds, 40 mg sample in 100 ml water, pH 10, room temperature.
Description: 40 mg of the powdered sample was dispersed in 100 ml deionised sterile water. The pH was maintained at 10 using NaOH. 8 ml of the solution was taken, to it 1 ml cell (1 mL bacterial suspension of Staphylococcus aureus (stock 10^9 cells/MI) and 1 ml of distilled water was added. The incubation was done at room temperature for 30 and 60 seconds respectively. 1 ml of the above reaction mixtures was taken and added to 9 ml of Dey-Engley Neutralizing Broth. This was further incubated for 5 minutes. This represents 10^−1 dilution. Serial dilutions were performed for plate count.

For the molecule `NC(=O)c1ccccn1.[Zn]` [D, Zinc picolinamide], in assay [1], the Log reduction is 1.92.

Zinc isoniacinamide [B]: the “zone of inhibition (mm)” value in assay [2] amounted to 0 mm. Further, the Log reduction worked out at 1.98 in assay [1] and 0.9 in assay [3].

The molecule Zinc niacinamide came in with a Log reduction in assay [1] of 1.96.
